# Measured values: the supplement of paper PMC13380429
# Structures can show the parent of a compound that is named as a salt.
# How the values were obtained:
# Conditions in all cases: 72 h
# HepG2 [1] = assay: cell viability relative to DMSO; higher = less toxic
# Calu-3 [2] = assay: as above
# Vero E6 [3] = assay: as above
# U2OS [4] = assay: as above
# Caco-2 [5] = assay: as above
# HepG2 [6] = assay: relative viability EC50 (midpoint between 100% and the lowest measured viability); higher = less toxic
# Calu-3 [7] = assay: as above
# Vero E6 [8] = assay: as above
# U2OS [9] = assay: as above
# Caco-2 [10] = assay: as above
# HepG2 [11] = assay: drug sensitivity score (DSS) for viability; higher = more toxic; extreme values may be limits of the assay
# Calu-3 [12] = assay: as above
# Vero E6 [13] = assay: as above
# U2OS [14] = assay: as above
# Caco-2 [15] = assay: as above
Structure (SMILES),cell viability (HepG2 [1]; 1 nM) [%],cell viability (HepG2 [1]; 10 nM) [%],cell viability (HepG2 [1]; 100 nM) [%],cell viability (HepG2 [1]; 1000 nM) [%],cell viability (HepG2 [1]; 10000 nM) [%],cell viability (Calu-3 [2]; 1 nM) [%],cell viability (Calu-3 [2]; 10 nM) [%],cell viability (Calu-3 [2]; 100 nM) [%],cell viability (Calu-3 [2]; 1000 nM) [%],cell viability (Calu-3 [2]; 10000 nM) [%],cell viability (Vero E6 [3]; 1 nM) [%],cell viability (Vero E6 [3]; 10 nM) [%],cell viability (Vero E6 [3]; 100 nM) [%],cell viability (Vero E6 [3]; 1000 nM) [%],cell viability (Vero E6 [3]; 10000 nM) [%],cell viability (U2OS [4]; 1 nM) [%],cell viability (U2OS [4]; 10 nM) [%],cell viability (U2OS [4]; 100 nM) [%],cell viability (U2OS [4]; 1000 nM) [%],cell viability (U2OS [4]; 10000 nM) [%],cell viability (Caco-2 [5]; 1 nM) [%],cell viability (Caco-2 [5]; 10 nM) [%],cell viability (Caco-2 [5]; 100 nM) [%],cell viability (Caco-2 [5]; 1000 nM) [%],cell viability (Caco-2 [5]; 10000 nM) [%],relative viability EC50 (HepG2 [6]) [µM],relative viability EC50 (Calu-3 [7]) [µM],relative viability EC50 (Vero E6 [8]) [µM],relative viability EC50 (U2OS [9]) [µM],relative viability EC50 (Caco-2 [10]) [µM],drug sensitivity score (HepG2 [11]),drug sensitivity score (Calu-3 [12]),drug sensitivity score (Vero E6 [13]),drug sensitivity score (U2OS [14]),drug sensitivity score (Caco-2 [15])
CN1[C@@H]2CC[C@H]1C[C@@H](OC(=O)C(CO)c1ccccc1)C2 (stereo not given in full) [ATROPINE SULFATE],102,91.5,105,84.3,98.2,96.2,102,88.4,104,96.1,112,99.7,109,99.4,106,96.5,102,102,102,103,93.2,95,67.1,99.6,98.5,> 10,> 10,> 10,> 10,> 10,0,0,0,0,0
O=C(c1ccc(Cl)o1)N1CC2CNCC2C1 (stereo not given) [AZD1446],99.3,93.1,90.2,99.1,88,112,89.8,94.4,89.4,107,96.4,98.2,98.7,99.6,91.3,99.6,98.6,96.1,97.7,97.8,103,97.8,97,103,103,> 10,> 10,> 10,> 10,> 10,0,0,0,0,0
C[C@]12CC[C@H](O)CC1=CC[C@@H]1[C@@H]2CC[C@]2(C)C(c3cccnc3)=CC[C@@H]12 [Abiraterone (CB-7598)],97.7,92.7,103,95.1,103,96,107,100,98.3,100,99.9,95.2,93.9,96.4,112,95.3,101,95.7,103,104,87.1,92.3,100,101,98.1,> 10,> 10,> 10,> 10,> 10,0,0,0,0,0
CC1(C)C(=O)NC2=C1C(=O)C(=O)c1ccccc12 [BVT-948],97.5,95.4,88.7,94.8,21.3,98,101,104,102,20.3,98.3,102,104,97.9,19.6,101,98,95.8,100,0.1,92.1,104,99.6,86.8,0.9,2.63,3.34,2.97,3.17,2.09,5.1,4.2,4.7,5.6,7.7
C[C@H]1C[C@H]2[C@@H]3CCC4=CC(=O)C=C[C@]4(C)[C@H]3C(=O)C[C@]2(C)[C@@]1(O)C(=O)CO [Betapar (Meprednisone)],83.6,97.3,95.5,95.9,86.5,92.9,93.2,91.5,91,97.8,103,102,101,99.7,97.4,97.6,98.3,96,98.2,95.1,86.1,91.1,87.4,103,94.8,> 10,> 10,> 10,> 10,> 10,0,0,0,0,0
COc1cc2nc(N3CCC(N4CCCCC4)CC3)nc(NC3CCCCCC3)c2cc1OC [C-021],108,93.7,99.4,101,-0.2,98.4,100,94.7,90,4.2,96.8,102,99.1,97.5,0.8,99.4,98.7,99.1,94.6,16.7,101,101,108,93.4,23.4,3.24,2.31,2.98,2.65,2.47,5.5,6.9,5.9,5.4,5.3
Cc1cc2c(C(N)=O)cccc2n1-c1nc2c(c(NCc3ccccc3)n1)COCC2 [CB-5083],107,95,104,2.8,-0.2,101,94.3,104,47.1,1.7,98.8,103,102,1.1,-0.4,100,102,98.4,87.1,-0.3,97.8,92.8,103,50.1,13.6,0.36,0.941,0.338,2.12,0.883,17.3,11.9,17.6,7.7,10.8
